Results taken from article PMC10743086, “Immunofluorescence-Based Assay for High-Throughput Analysis of Multidrug Resistance Markers in Non-Small Cell Lung Carcinoma Patient-Derived Cells” (Diagnostics, 2023).

Legend:
Format in all cases: cell-based, human
NCI-H460 cells = assay: Cytotoxicity by immunofluorescence cell scoring (cell counts), NSCLC cell line; details: 24 h treatment
Procedure: (§1) Vinorelbine and pemetrexed were purchased from Selleckchem (Houston, TX, USA). Carboplatin, cisplatin, docetaxel, etoposide, gemcitabine, gefitinib, and paclitaxel were purchased from Sigma-Aldrich Chemie GmbH (Taufkirchen, Germany). The cisplatin, carboplatin, and gemcitabine were dissolved in sterile water, while the etoposide, docetaxel, vinorelbine, paclitaxel, gefitinib, and pemetrexed were dissolved in DMSO and stored at −20 °C. Before treatment, all the stock solutions were freshly diluted in sterile water.
(§2) The compounds were administered 48 h after seeding. The treatment lasted 24 h.
(§3) The immunofluorescence assay for the quantification of MDR markers was optimized to distinguish cancer cells from stromal cells using a cytokeratin 8/18 (CK8/18) antibody cocktail. The cells were fixed with 4% paraformaldehyde for 20 min at RT and washed three times with PBS using the Wellwash Versa microplate washer (Thermo Fisher Scientific, Waltham, MA, USA). The cells were then blocked with 2% bovine serum albumin (BSA) in PBS for 1 h at RT. […] Co-immunostaining with antibodies against MDR markers was performed to detect the presence of ABCB1, ABCC1, and ABCG2 in both the cancer and stromal cells. […] The secondary antibodies were incubated with the cells at RT for 2 h in the dark. […] Finally, the cells were washed three times with PBS and stored at 4 °C in the dark before imaging.
(§4) The fluorescently labeled cells were imaged using the ImageXpress Pico Automated Cell Imaging System (Molecular Devices, San Jose, CA, USA) with a 4x objective after determining the appropriate exposure time for each illumination filter. Analysis of the obtained images was performed using CellReporterXpress software v. 2.8.2.669 (Molecular Devices). The cytotoxicity of the compounds was determined using the Cell Scoring Analysis Protocol. […] Expression of MDR markers was determined using the Multi-Wavelength Cell Scoring Analysis Protocol.

NCI-H460/R cells = assay: Cytotoxicity by immunofluorescence cell scoring (cell counts), multidrug-resistant NSCLC cell line; details: 24 h treatment
From the text: Human non-small cell lung carcinoma cells (NCI-H460) were purchased from the American Type Culture Collection (Rockville, MD, USA), and normal embryonic lung fibroblasts (MRC-5) were purchased from the European Collection of Authenticated Cell Cultures (Salisbury, UK). Multidrug-resistant NCI-H460/R cells overexpressing ABCB1 were selected from the NCI-H460 cells after selective pressure with doxorubicin [21]. All the cell lines were maintained in MEM medium (Sigma-Aldrich Chemie GmbH, Taufkirchen, Germany) supplemented with 10% FBS, 2 mM L-glutamine, and antibiotic-antimycotic solution. All the cell lines were maintained at 37 °C in a humidified atmosphere with 5% CO2.
as §1, §2, §3, §4

MRC-5 cells = assay: Cytotoxicity by immunofluorescence cell scoring (cell counts), normal fibroblasts; details: 24 h treatment
Procedure: as §1, §2, §3, §4

[1] = system: ABCB1 expression in MRC-5 cells; assay: Immunofluorescence assay of MDR marker ABCB1 expression; details: five concentrations, 24 h
Procedure: as §1, §2, §3, §4

[2] = system: ABCB1 expression in NCI-H460 cells; assay: as above; details: five concentrations, 24 h
Procedure: as §1, §2, §3, §4

[3] = system: ABCB1 expression in NCI-H460/R cells; assay: as above; details: five concentrations, 24 h
Procedure: as §1, §2, §3, §4

[4] = system: Cancer cells (CK8/18+) of patient-derived NSCLC cultures; assay: Cytotoxicity in patient-derived NSCLC cultures, cancer cells; details: 7 days treatment
Procedure: (§5) Tissue samples were collected during surgery, and the NSCLC diagnosis, histological grade, stage, necrosis, and lymph node invasion status were determined by histopathological analysis. […] The surgical specimens were placed in a sterile tube containing antibiotic-antimycotic solution (Sigma-Aldrich Chemie GmbH, Taufkirchen, Germany) and immediately transported to the research laboratory for further processing.
(§6) Upon arrival, the tissue was manually chopped with a surgical blade in a Petri dish under sterile conditions. The samples were cut into 3–5 mm pieces and further dissociated using the Tumor Dissociation Kit (Miltenyi Biotec, Bergisch Gladbach, Germany). The Tumor Dissociation Kit was used to dissociate the cells from the tumor tissue according to the manufacturer’s instructions. The samples were incubated in a 37 °C orbital shaker (KS 4000 ic control, IKA, Königswinter, Germany) at 300 rpm for 90 min. After incubation, the dissociated tissue was placed in DMEM/Ham’s F12 (1:3 ratio) growth medium supplemented with 5% fetal bovine serum (Corning, NY, USA), antibiotic-antimycotic solution, 4 µg/mL hydrocortisone (Sigma-Aldrich Chemie GmbH, Taufkirchen, Germany), 1 µg/mL insulin (Sigma-Aldrich Chemie GmbH, Taufkirchen, Germany), 10 ng/mL epidermal growth factor (BioLegend, San Diego, CA, USA), and 24 µg/mL adenine (Sigma-Aldrich Chemie GmbH, Taufkirchen, Germany). The DMEM and Ham’s F12 growth media were purchased from Sigma-Aldrich Chemie GmbH (Taufkirchen, Germany).
(§7) The dissociated tissue was cultured in T-25 cell culture flasks until cell attachment was observed before the medium was replaced. If no cell attachment was achieved within 7 days, the sample was discarded. Successful patient-derived cultures were maintained at 37 °C in a humidified atmosphere with 5% CO2 and grown to confluence before undergoing further experiments. […] Partial trypsinization was performed by detaching the fibroblast-like cells with 1 mL of 0.05% trypsin for 1 min at 37 °C, followed by 2 min at room temperature (RT).
as §1
(§8) The primary cells were seeded in black, clear bottom 384-well cell culture microplates (Thermo Fisher Scientific, Waltham, MA, USA) in 50 µL of cell growth medium at a density of 1000 cells per well. The compounds were administered 72 h after seeding. The treatment lasted 7 days.
as §3

[5] = system: Non-cancer cells (CK8/18-) of patient-derived NSCLC cultures; assay: Cytotoxicity in patient-derived NSCLC cultures, non-cancer cells; details: 7 days treatment
Procedure: as §5, §6, §7, §1, §8, §3

[6] = system: ABCB1 expression in cancer cells (CK8/18+); assay: Immunofluorescence assay of ABCB1 expression in patient-derived NSCLC cultures; details: 7 days
Procedure: as §5, §6, §7, §1, §8, §3

[7] = system: ABCC1 expression in cancer cells (CK8/18+); assay: Immunofluorescence assay of ABCC1 expression in patient-derived NSCLC cultures
Procedure: as §5, §6, §7, §1, §8, §3

[8] = system: ABCG2 expression in cancer cells (CK8/18+); assay: Immunofluorescence assay of ABCG2 expression in patient-derived NSCLC cultures; details: 7 days
Procedure: as §5, §6, §7, §1, §8, §3

[9] = system: ABCC1 expression in non-cancer cells (CK8/18-); assay: Immunofluorescence assay of ABCC1 expression in patient-derived NSCLC cultures, non-cancer cells; details: Table S2
Procedure: as §5, §6, §7, §1, §8, §3

[10] = NCI-H460 (co-culture with MRC-5)
[11] = NCI-H460/R (co-culture with MRC-5)
[12] = MRC-5 (co-culture with NCI-H460)
[13] = MRC-5 (co-culture with NCI-H460/R)
[14] = culture TR58, cancer cells (CK8/18+)
[15] = culture TR64, cancer cells (CK8/18+)
[16] = culture TR65, cancer cells (CK8/18+)
[17] = culture TR84, cancer cells (CK8/18+)
[18] = culture TR87, cancer cells (CK8/18+)
[19] = culture TR58, non-cancer cells (CK8/18-)
[20] = culture TR64, non-cancer cells (CK8/18-)
[21] = culture TR65, non-cancer cells (CK8/18-)
[22] = culture TR84, non-cancer cells (CK8/18-)
[23] = culture TR87, non-cancer cells (CK8/18-)

N.N.O=C([O-])C1(C(=O)[O-])CCC1.[Pt+2] [Carboplatin]
IC50 (NCI-H460 cells; [10]): > 100 µM | IC50 (NCI-H460 cells; NCI-H460 monoculture): > 100 µM | IC50 (NCI-H460/R cells; [11]): > 100 µM | IC50 (NCI-H460/R cells; NCI-H460/R monoculture): > 100 µM | IC50 (MRC-5 cells; [12]): > 100 µM | IC50 (MRC-5 cells; [13]): > 100 µM | IC50 (MRC-5 cells; MRC-5 monoculture): > 100 µM | ABCB1 Expression [1, 12]: no change | ABCB1 Expression [1, 13]: no change | ABCB1 Expression ([1]; MRC-5 monoculture): no change | ABCB1 Expression [2, 10]: no change | ABCB1 Expression ([2]; NCI-H460 monoculture): no change | ABCB1 Expression [3, 11]: no change | ABCB1 Expression ([3]; NCI-H460/R monoculture): no change | IC50 [4, 14]: 60.8 µM | IC50 [4, 15]: 39 µM | IC50 [4, 16]: 22.5 µM | IC50 [4, 17]: 8.15 µM | IC50 [4, 18]: 43.3 µM | IC50 [5, 19]: 27.3 µM | IC50 [5, 20]: 12.8 µM | IC50 [5, 21]: 2.16 µM | IC50 [5, 22]: 1.28 µM | IC50 [5, 23]: 22.9 µM | ABCB1 Expression [6, 14]: no change | ABCB1 Expression [6, 15]: increase (An increase in ABCB1, ABCC1, or ABCG2 expression of at least 20% at a minimum of one concentration is shown in the table.) | ABCB1 Expression [6, 16]: increase (An increase in ABCB1, ABCC1, or ABCG2 expression of at least 20% at a minimum of one concentration is shown in the table.) | ABCB1 Expression [6, 17]: increase (An increase in ABCB1, ABCC1, or ABCG2 expression of at least 20% at a minimum of one concentration is shown in the table.) | ABCB1 Expression [6, 18]: increase (An increase in ABCB1, ABCC1, or ABCG2 expression of at least 20% at a minimum of one concentration is shown in the table.) | ABCC1 expression ([7]; culture TR58, cancer cells (CK8/18+), 7 days): no change | ABCC1 expression ([7]; culture TR64, cancer cells (CK8/18+), 7 days): increase (An increase in ABCB1, ABCC1, or ABCG2 expression of at least 20% at a minimum of one concentration is shown in the table.) | ABCC1 expression ([7]; culture TR65, cancer cells (CK8/18+), 7 days): increase (An increase in ABCB1, ABCC1, or ABCG2 expression of at least 20% at a minimum of one concentration is shown in the table.) | ABCC1 expression ([7]; culture TR84, cancer cells (CK8/18+), 7 days): increase (An increase in ABCB1, ABCC1, or ABCG2 expression of at least 20% at a minimum of one concentration is shown in the table.) | ABCC1 expression ([7]; culture TR87, cancer cells (CK8/18+), 7 days): increase (An increase in ABCB1, ABCC1, or ABCG2 expression of at least 20% at a minimum of one concentration is shown in the table.) | ABCG2 expression [8, 14]: increase (An increase in ABCB1, ABCC1, or ABCG2 expression of at least 20% at a minimum of one concentration is shown in the table.) | ABCG2 expression [8, 15]: increase (An increase in ABCB1, ABCC1, or ABCG2 expression of at least 20% at a minimum of one concentration is shown in the table.) | ABCG2 expression [8, 16]: increase (An increase in ABCB1, ABCC1, or ABCG2 expression of at least 20% at a minimum of one concentration is shown in the table.) | ABCG2 expression [8, 17]: increase (An increase in ABCB1, ABCC1, or ABCG2 expression of at least 20% at a minimum of one concentration is shown in the table.) | ABCG2 expression [8, 18]: increase (An increase in ABCB1, ABCC1, or ABCG2 expression of at least 20% at a minimum of one concentration is shown in the table.)

COc1cc2ncnc(Nc3ccc(F)c(Cl)c3)c2cc1OCCCN1CCOCC1 [gefitinib]
ABCC1 expression ([7]; culture TR58, cancer cells (CK8/18+), Table S2): no change | ABCC1 expression ([7]; culture TR64, cancer cells (CK8/18+), Table S2): no change | ABCC1 expression ([7]; culture TR65, cancer cells (CK8/18+), Table S2): increase (an increase in ABCC1 expression of at least 20% at a minimum of one concentration is shown in the Table.) | ABCC1 expression ([7]; culture TR84, cancer cells (CK8/18+), Table S2): increase (an increase in ABCC1 expression of at least 20% at a minimum of one concentration is shown in the Table.) | ABCC1 expression ([7]; culture TR87, cancer cells (CK8/18+), Table S2): no change | ABCC1 expression [9, 19]: no change | ABCC1 expression [9, 20]: no change | ABCC1 expression [9, 21]: no change | ABCC1 expression [9, 22]: no change | ABCC1 expression [9, 23]: no change
